This note sets out measurements from patent publication US20100137248A1, “BORON-CONTAINING COMPOUNDS, USES AND PREPARATION THEREOF” (DINOTEC INC., priority 2007, published 2010).

In the series the test system is pain and/or inflammation in volunteers. As to the kind of experiment: Tests on various subjects using Composition 2 (pain and/or inflammation). The class given is in vivo. The settings on record: past medication of volunteers; testimony. The protocol: Composition 2 was tested on several subjects so as to verify its activity as anti-inflammatory agent and/or analgesic. As it can be seen from Table 1, test subjects having various inflammations or pain have been treated with Composition 2. In each case, a small amount of Composition 2, in the form of a cream, was applied to inflamed skin area by means of a short gentle rub.

With `CC(=O)Oc1ccccc1C(=O)O` [Aspirin, acetylsalicylic acid], the “gastric side effect reported by volunteers” value is on record as “severe gastric burning sensation”.
